US11505521B2 (Biothea Pharma, Inc., priority 2018, dated 2022)
Like-named read-outs stand apart in the source and are kept apart here.

Legend:
[1] = no humidity
Experimental: The samples were prepared in a brown glass bottle with the outer packing being an aluminum foil bag, and the samples were stored between layers of dessicant silica gels. The appearance, residual material, purity, TGA, and DSC were analyzed each month.

[2] = Experimental: The procedure for the various conditions is set forth below.
Standard: 20 mg of sample was weighed and dissolved in a 50 mL volumetric flask, diluted to the required volume with diluents, and mixed well.
Acid Degradation: 20 mg of sample was weighed and placed in a 50 mL volumetric flask. 2 mL of 2.0 mol/L HCl was added to the flask. The flask was placed in a water bath at 40° C. for 7 days.
Alkaline Degradation: 20 mg of sample was weighed and placed in a 50 mL volumetric flask. 2 mL of 0.05 mol/L NaOH was added to the flask. The flask was stored at room temperature for 24 hours.
Oxidation: 20 mg of sample was weighed and placed in a 50 mL volumetric flask. 2 mL of 10% H2O2 was added to the flask. The flask was placed in a water bath at 40° C. for 44 hours.
Thermal Degradation (solution, 80° C.): 20 mg of sample was weighed and dissolved in a 50 mL volumetric flask, diluted to the required volume with diluents, and mixed well. The flask was placed in a water bath at 80° C. for 46 hours.
Thermal Degradation (solid, 80° C.): 120 mg of sample was placed in an oven at 80° C. for 7 days.
The appearance and purity of the samples were test.

[3] = Acid Degradation: 2.0 mol/L HCl, 40° C., 7 days
[4] = Alkaline Degradation: 0.05 mol/L NaOH, room temperature, 24 hours
[5] = Oxidation: 10% H2O2, 40° C., 44 hours
[6] = Thermal Degradation (solid): 80° C., 7 days
[7] = Thermal Degradation (solution): 80° C., 46 hours

Q: Which results are given for `CNC[C@H](O)c1ccc(O)c(O)c1` [epinephrine malonate]?
A: Appearance ([1]; 30° C., month 0): Off-white; DSC Offset ([1]; 30° C., month 0): Offset: 104.25 °C; DSC Onset ([1]; 30° C., month 0): Onset: 98.8 °C; Purity ([1]; 30° C., month 0): 99.96%; TGA ([1]; 30° C., month 0): 0.32%; Appearance ([1]; 30° C., month 1): Off-white; DSC Offset ([1]; 30° C., month 1): Offset: 103.99 °C; DSC Onset ([1]; 30° C., month 1): Onset: 98.80 °C; Purity ([1]; 30° C., month 1): 99.96%; Residual Material (%) ([1]; 30° C., month 1): 100.31%; TGA ([1]; 30° C., month 1): 0.60%; Appearance ([1]; 30° C., month 2): Off-white; DSC Offset ([1]; 30° C., month 2): Offset: 104.47 °C; DSC Onset ([1]; 30° C., month 2): Onset: 99.27 °C; Purity ([1]; 30° C., month 2): 99.96%; Residual Material (%) ([1]; 30° C., month 2): 99.42%; TGA ([1]; 30° C., month 2): 0.19%; Appearance ([1]; 30° C., month 3): Off-white; DSC Offset ([1]; 30° C., month 3): Offset: 104.23 °C; DSC Onset ([1]; 30° C., month 3): Onset: 98.72 °C; Purity ([1]; 30° C., month 3): 99.96%; Residual Material (%) ([1]; 30° C., month 3): 99.44%; TGA ([1]; 30° C., month 3): 0.90%; Appearance ([1]; 30° C., month 4): Off-white; DSC Offset ([1]; 30° C., month 4): Offset: 103.62 °C; DSC Onset ([1]; 30° C., month 4): Onset: 99.12 °C; Purity ([1]; 30° C., month 4): 99.73%; Residual Material (%) ([1]; 30° C., month 4): 99.31%; TGA ([1]; 30° C., month 4): 0.69%; Appearance ([1]; 30° C., month 5): Off-white; DSC Offset ([1]; 30° C., month 5): Offset: 103.92 °C; DSC Onset ([1]; 30° C., month 5): Onset: 98.71 °C; Purity ([1]; 30° C., month 5): 99.96%; Residual Material (%) ([1]; 30° C., month 5): 100.22%; TGA ([1]; 30° C., month 5): 0.51%; Appearance ([1]; 40° C., month 0): Off-white; DSC Offset ([1]; 40° C., month 0): Offset: 104.25 °C; DSC Onset ([1]; 40° C., month 0): Onset: 98.8 °C; Purity ([1]; 40° C., month 0): 99.96%; TGA ([1]; 40° C., month 0): 0.32%; Appearance ([1]; 40° C., month 1): Off-white; DSC Offset ([1]; 40° C., month 1): Offset: 104.41 °C; DSC Onset ([1]; 40° C., month 1): Onset: 98.89 °C; Purity ([1]; 40° C., month 1): 99.97%; Residual Material (%) ([1]; 40° C., month 1): 99.59%; TGA ([1]; 40° C., month 1): 0.16%; Appearance ([1]; 40° C., month 2): Off-white; DSC Offset ([1]; 40° C., month 2): Offset: 104.05 °C; DSC Onset ([1]; 40° C., month 2): Onset: 98.78 °C; Purity ([1]; 40° C., month 2): 99.96%; Residual Material (%) ([1]; 40° C., month 2): 100.11%; TGA ([1]; 40° C., month 2): 0.13%; Appearance ([1]; 40° C., month 3): Off-white; DSC Offset ([1]; 40° C., month 3): Offset: 103.33 °C; DSC Onset ([1]; 40° C., month 3): Onset: 98.69 °C; Purity ([1]; 40° C., month 3): 99.96%; Residual Material (%) ([1]; 40° C., month 3): 98.97%; TGA ([1]; 40° C., month 3): 0.51%; Appearance ([1]; 40° C., month 5): Off-white; DSC Offset ([1]; 40° C., month 5): Offset: 103.83 °C; DSC Onset ([1]; 40° C., month 5): Onset: 98.49 °C; Purity ([1]; 40° C., month 5): 99.96%; Residual Material (%) ([1]; 40° C., month 5): 99.68%; TGA ([1]; 40° C., month 5): 0.46%; Appearance [2, 3]: Colorless liquid; Purity [2, 3]: 91.96%; Appearance [2, 4]: Brown liquid; Purity [2, 4]: 98.68%; Appearance [2, 5]: Colorless liquid; Purity [2, 5]: 97.04%; Appearance ([2]; Standard (no degradation)): Off-white powder; Purity ([2]; Standard (no degradation)): 99.89%; Appearance [2, 6]: Off-white powder; Purity [2, 6]: 99.10%; Appearance [2, 7]: Colorless liquid; Purity [2, 7]: 96.04%
